Values of other authors as cited in patent US11857553B2, “Chromium containing compositions for improving health and fitness” (NUTRITION 21, LLC, priority 2016, dated 2024).

Tests used:
chromium absorption = conditions: orally administered CrCl3
[1] = rats, several thousand times the upper limit of the ESADDI for chromium for humans

| Molecule | effect on chromium absorption (chromium absorption) | toxicity [1] |
| --- | --- | --- |
| COc1ccc2c(c1)c(CC(=O)O)c(C)n2C(=O)c1ccc(Cl)cc1 [indomethacin] | facilitate chromium absorption | – |
| [Cl][Cr]([Cl])[Cl] [chromium chloride] | – | without toxic effects |
| chromium picolinate | – | without toxic effects |
| CC(=O)Oc1ccccc1C(=O)O [aspirin] | facilitate chromium absorption | – |
